# Patent EP4800015A1, “AZABICYCLO DERIVATIVE AND PREPARATION METHOD THEREFOR, AND USE” (Zhejiang Hisun Pharmaceutical Co., Ltd., priority 2023, dated 2025)
# Like-named read-outs stand apart in the source and are kept apart here.
# Biological target: T1, recombinant human WRN (Homo sapiens, UniProt Q14191)
# T1 construct: purchased BPS 101264
# Assay: Inhibition of WRN enzyme activity (ATPase), ADP-Glo Kinase Assay
# Assay type: biochemical
# Settings: WRN protein 5 nM, Flap 0.1 nM, ATP 30 µM
# Source text: The following method was used to determine the degree of inhibition of recombinant human WRN ATPase activity by the compounds of the present disclosure in vitro. In this method, ADP-Glo™ Kinase Assay kit (catalog No. V9102) from Promega was used. Detailed experimental procedures can be found in the kit manual.
# The experimental procedure was briefly described as follows: test compounds were first dissolved in DMSO to prepare stock solutions, followed by serial dilution using reaction buffer (30 mM Tris, pH 7.5, 2 mM MgCl2, 50 mM NaCl, 0.02% BSA, 0.1% Pluronic F127), with final concentrations of test compounds in the reaction system ranging from 1000 nM to 0.004 nM; WRN protein (purchased from BPS, catalog No. 101264), substrate 5-flap oligonucleotide (Flap26) (synthesized by Shanghai Generay Biotech Co., Ltd., sequence 5'-[…]-3'), and ATP working solution (from ADP-Glo™ Kinase Assay kit component V915A) were prepared using reaction buffer. Reactions were performed in 384-well microplates. At first the compounds and recombinant human WRN protein (final concentration 5 nM) were added to the wells and the plate was incubated at room temperature for 15 minutes, then Flap solution (final concentration 0.1 nM) and ATP solution (final concentration 30 µM) were added to the reaction solution and the plate was incubated at room temperature for 10 minutes. Subsequently, 5 µL of ADP-Glo Reagent was added to the reaction system and incubated at room temperature for 40 minutes. Then 10 µL of Kinase Detection Reagent was added to the reaction system and incubated at room temperature for 30 minutes. After the incubation was completed, chemiluminescence intensity values of each well were measured using a microplate reader in luminescence mode. The percentage inhibition of the compounds at each concentration was calculated by comparison with the luminescence intensity values of the control group (0.1% DMSO), and IC50 values of compounds were obtained by nonlinear regression analysis of compound concentration logarithm-inhibition rate using GraphPad Prism 9 software, as shown in Table 1.
# The IC50 value results of the compounds of the present disclosure are expressed as AA and A, respectively as follows: "AA" indicates IC50 ≤ 1 nM; "A" indicates 1 nM < IC50 ≤ 100 nM. Table 1 IC50 of the compounds of the present disclosure for inhibiting WRN enzyme activity (ATPase)
# T1 sequence (Q14191 whole entry): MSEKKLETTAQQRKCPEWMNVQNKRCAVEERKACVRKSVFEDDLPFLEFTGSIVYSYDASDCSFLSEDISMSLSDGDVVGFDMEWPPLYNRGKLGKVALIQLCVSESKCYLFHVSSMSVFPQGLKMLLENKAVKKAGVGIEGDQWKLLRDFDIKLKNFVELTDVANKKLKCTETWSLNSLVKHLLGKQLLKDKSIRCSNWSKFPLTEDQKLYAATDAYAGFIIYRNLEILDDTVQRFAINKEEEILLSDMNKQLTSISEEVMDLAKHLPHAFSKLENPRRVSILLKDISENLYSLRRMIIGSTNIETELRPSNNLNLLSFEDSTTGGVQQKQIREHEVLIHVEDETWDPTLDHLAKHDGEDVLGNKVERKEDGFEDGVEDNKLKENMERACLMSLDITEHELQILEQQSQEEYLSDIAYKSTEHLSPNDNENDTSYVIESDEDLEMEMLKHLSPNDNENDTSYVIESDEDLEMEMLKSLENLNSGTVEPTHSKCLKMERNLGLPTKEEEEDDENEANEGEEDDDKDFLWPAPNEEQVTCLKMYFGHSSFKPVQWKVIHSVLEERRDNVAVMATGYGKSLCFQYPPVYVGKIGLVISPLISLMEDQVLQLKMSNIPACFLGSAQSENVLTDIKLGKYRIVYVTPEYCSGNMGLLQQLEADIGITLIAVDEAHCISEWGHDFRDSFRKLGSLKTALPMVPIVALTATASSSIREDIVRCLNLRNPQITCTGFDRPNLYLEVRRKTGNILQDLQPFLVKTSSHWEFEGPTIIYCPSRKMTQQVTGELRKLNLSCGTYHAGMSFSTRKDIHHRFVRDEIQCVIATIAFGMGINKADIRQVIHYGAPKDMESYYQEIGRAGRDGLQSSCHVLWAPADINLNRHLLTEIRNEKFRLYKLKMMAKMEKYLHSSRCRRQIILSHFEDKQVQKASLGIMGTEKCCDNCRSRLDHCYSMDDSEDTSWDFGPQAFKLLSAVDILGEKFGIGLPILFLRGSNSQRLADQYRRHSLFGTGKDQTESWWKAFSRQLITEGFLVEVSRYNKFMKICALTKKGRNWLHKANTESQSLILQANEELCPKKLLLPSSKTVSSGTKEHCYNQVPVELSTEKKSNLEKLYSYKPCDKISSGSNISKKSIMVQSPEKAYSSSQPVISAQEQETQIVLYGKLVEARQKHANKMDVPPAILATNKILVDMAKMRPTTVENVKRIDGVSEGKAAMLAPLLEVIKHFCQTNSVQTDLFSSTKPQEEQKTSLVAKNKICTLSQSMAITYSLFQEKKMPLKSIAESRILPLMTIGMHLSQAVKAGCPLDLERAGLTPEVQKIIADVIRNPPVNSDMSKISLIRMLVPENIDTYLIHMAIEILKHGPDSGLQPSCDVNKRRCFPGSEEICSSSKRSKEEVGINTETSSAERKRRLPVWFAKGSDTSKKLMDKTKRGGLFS
Structure (SMILES),IC50 (read-out: IC50),IC50
"CCc1c(N2CCN(C(=O)c3ncnc(C)c3O)CC2)c(=O)n2nc(-c3ccc4ccoc4c3)cc2n1CC(=O)Nc1ccc(C(F)(F)F)cc1Cl [Example 57, 2-(2-(benzofuran-6-yl)-5-ethyl-6-(4-(5-hydroxy-6-methylpyrimidine-4-carbonyl)piperazin-1-yl)-7-oxopyrazolo[1,5-a]pyrimidin-4(7H)-yl)-N-(2-chloro-4-(trifluoromethyl)phenyl)acetamide]",1 to 100 nM,–
"CCc1c(N2CCN(C(=O)c3ncnc(C)c3O)CC2)c(=O)n2nc(-c3ccc4c(c3)OCC4)nc2n1CC(=O)Nc1ccc(S(F)(F)(F)(F)F)cc1 [Example 58, 2-(2-(2,3-dihydrobenzofuran-6-yl)-5-ethyl-6-(4-(5-hydroxy-6-methylpyrimidine-4-carbonyl)piperazin-1-yl)-7-oxo-[1,2,4]triazolo[1,5-a]pyrimidin-4(7H)-yl)-N-(4-(pentafluoro-λ^6-sulfaneyl)phenyl)acetamide]",1 to 100 nM,–
"CCc1c(N2CCN(C(=O)c3ncnc(C)c3O)CC2)c(=O)n2nc(C(C)=C3CCC3)nc2n1CC(=O)Nc1ccc(C(F)(F)F)cc1Cl [Example 60, N-(2-chloro-4-(trifluoromethyl)phenyl)-2-(2-(1-cyclobutylideneethyl)-5-ethyl-6-(4-(5-hydroxy-6-methylpyrimidine-4-carbonyl)piperazin-1-yl)-7-oxo-[1,2,4]triazolo[1,5-a]pyrimidin-4(7H)-yl)ace tamide]",1 to 100 nM,–
"CCc1c(N2CCN(C(=O)c3ncnc(C)c3O)CC2)c(=O)n2nc(C(C)=C3CCC3)nc2n1CC(=O)Nc1ccc(S(F)(F)(F)(F)F)cc1 [Example 61, 2-(2-(1-cyclobutylideneethyl)-5-ethyl-6-(4-(5-hydroxy-6-methylpyrimidine-4-carbonyl)piperazin-1-yl)-7-oxo-[1,2,4]triazolo[1,5-a]pyrimidin-4(7H)-yl)-N-(4-(pentafluoro-λ^6-sulfaneyl)phenyl)ace tamide]",1 to 100 nM,–
"CCc1c(N2CCN(C(=O)c3ncnc(C)c3O)CC2)c(=O)n2nc(C3=CCC4(CC3)CC4)nc2n1CC(=O)Nc1ccc(C(F)(F)F)cc1Cl [Example 64, N-(2-Chloro-4-(trifluoromethyl)phenyl)-2-(5-ethyl-6-(4-(5-hydroxy-6-methylpyrimidine-4-carbonyl)piperazin-1-yl)-7-oxo-2-(spiro[2.5]oct-5-en-6-yl)-[1,2,4]triazolo[1,5-a]pyrimidin-4(7H)-yl)ac etamide]",1 to 100 nM,–
"CCc1c(N2CCN(C(=O)c3ncccc3O)CC2)c(=O)n2nc(C3=Cc4ccccc4C3)nc2n1CC(=O)Nc1ccc(C(F)(F)F)cc1Cl [Example 72, N-(2-chloro-4-(trifluoromethyl)phenyl)-2-(5-ethyl-6-(4-(3-hydroxypicolinoyl)piperazin-1-yl)-2-(1H-inden-2-yl)-7-oxo-[1,2,4]triazolo[1,5-a]pyrimidin-4(7H)-yl)acetamide]",1 to 100 nM,–
"CCc1c(N2CCN(C(=O)c3ncccc3O)CC2)c(=O)n2nc(-c3cc4ccccc4s3)nc2n1CC(=O)Nc1ccc(C(F)(F)F)cc1Cl [Example 79, 2-(2-(benzo[b]thiophen-2-yl)-5-ethyl-6-(4-(3-hydroxypicolinoyl)piperazin-1-yl)-7-oxo-[1,2,4]triazolo[1,5-a]pyrimidin-4(7H)-yl)-N-(2-chloro-4-(trifluoromethyl)phenyl)acetamide]",1 to 100 nM,–
"CCc1c(N2CCN(C(=O)c3ncnc(C)c3O)CC2)c(=O)n2nc(-c3ccc4c(c3)CCO4)cc2n1CC(=O)Nc1ccc(C(F)(F)F)cc1Cl [Example 82, N-(2-chloro-4-(trifluoromethyl)phenyl)-2-(2-(2,3-dihydrobenzofuran-5-yl)-5-ethyl-6-(4-(5-hydroxy-6-methylpyrimidine-4-carbonyl)piperazin-1-yl)-7-oxopyrazolo[1,5-a]pyrimidin-4(7H)-yl)acet amide]",1 to 100 nM,–
"C=C(c1ccc(OC)cc1)c1nc2n(CC(=O)Nc3ccc(C(F)(F)F)cc3Cl)c(CC)c(N3CCN(C(=O)c4ncnc(C)c4O)CC3)c(=O)n2n1 [Example 83, N-(2-chloro-4-(trifluoromethyl)phenyl)-2-(5-ethyl-6-(4-(5-hydroxy-6-methylpyrimidine-4-carbonyl)piperazin-1-yl)-2-(1-(4-methoxyphenyl)vinyl)-7-oxo-[1,2,4]triazolo[1,5-a]pyrimidin-4(7H)-yl) acetamide]",–,1 to 100 nM
"CCc1c(C2CCN(C(=O)c3ncnc(C)c3O)CC2)c(=O)n2nc(C3=CCCCCC3)nc2n1CC(=O)Nc1ccc(S(F)(F)(F)(F)F)cc1 [Example 92, 2-(2-(cyclohept-1-en-1-yl)-5-ethyl-6-(1-(5-hydroxy-6-methylpyrimidine-4-carbonyl)piperidin-4-yl)-7-oxo-[1,2,4]triazolo[1,5-a]pyrimidin-4(7H)-yl)-N-(4-(pentafluoro-λ^6-sulfaneyl)phenyl)acetamide]",1 to 100 nM,–
"CCc1c(N2CCN(C(=O)c3ncnc(C)c3O)CC2)c(=O)n2nc(C3=CCCCCC3)nc2n1CC(=O)Nc1ccc(OC(F)(F)F)cc1 [Example 95, 2-(2-(cyclohept-1-en-1-yl)-5-ethyl-6-(4-(5-hydroxy-6-methylpyrimidine-4-carbonyl)piperazin-1-yl)-7-oxo-[1,2,4]triazolo[1,5-a]pyrimidin-4(7H)-yl)-N-(4-(trifluoromethoxy)phenyl)acetamide]",< 1 nM,–

# Now from value to compound, other results behind:
IC50 (read-out: IC50),Structure (SMILES),IC50
1 to 100 nM,"CCc1c(N2CCN(C(=O)c3ncnc(C)c3O)CC2)c(=O)n2nc(C3=CCCCCC3)cc2n1CC(=O)Nc1ccc(S(F)(F)(F)(F)F)cc1 [Example 59, 2-(2-(cyclohept-1-en-1-yl)-5-ethyl-6-(4-(5-hydroxy-6-methylpyrimidine-4-carbonyl)piperazin-1-yl)-7-oxopyrazolo[1,5-a]pyrimidin-4(7H)-yl)-N-(4-(pentafluoro-λ^6-sulfaneyl)phenyl)acetamide]",–
1 to 100 nM,"CCc1c(N2CCN(C(=O)c3ncccc3O)CC2)c(=O)n2nc(-c3cc4ccccc4o3)nc2n1CC(=O)Nc1ccc(C(F)(F)F)cc1Cl [Example 75, 2-(2-(benzofuran-2-yl)-5-ethyl-6-(4-(3-hydroxypicolinoyl)piperazin-1-yl)-7-oxo-[1,2,4]triazolo[1 ,5-a]pyrimidin-4(7H)-yl)-N-(2-chloro-4-(trifluoromethyl)phenyl)acetamide]",–
1 to 100 nM,"CCc1c(N2CCN(C(=O)c3ncccc3O)CC2)c(=O)n2nc(-c3ccc4ccoc4c3)nc2n1CC(=O)Nc1ccc(S(F)(F)(F)(F)F)cc1 [Example 78, 2-(2-(benzofuran-6-yl)-5-ethyl-6-(4-(3-hydroxypicolinoyl)piperazin-1-yl)-7-oxo-[1,2,4]triazolo[1 ,5-a]pyrimidin-4(7H)-yl)-N-(4-(pentafluoro-λ^6-sulfaneyl)phenyl)acetamide]",–
1 to 100 nM,"CCc1c(N2CCN(C(=O)c3ncnc(C)c3O)CC2)c(=O)n2nc(-c3ccc4c(c3)OCC4)nc2n1CC(=O)Nc1ccc(C(F)(F)F)cc1Cl [Example 81, N-(2-chloro-4-(trifluoromethyl)phenyl)-2-(2-(2,3-dihydrobenzofuran-6-yl)-5-ethyl-6-(4-(5-hydroxy-6-methylpyrimidine-4-carbonyl)piperazin-1-yl)-7-oxo-[1,2,4]triazolo[1,5-a]pyrimidin-4(7H)-yl)acetamide]",–
1 to 100 nM,"CCc1c(N2CCN(C(=O)c3ncnc(C)c3O)CC2)c(=O)n2nc(-c3ccc4ccoc4c3)nc2n1CC(=O)Nc1ccc(SC(F)(F)F)cc1 [Example 90, 2-(2-(benzofuran-6-yl)-5-ethyl-6-(4-(5-hydroxy-6-methylpyrimidine-4-carbonyl)piperazin-1-yl)-7-oxo-[1,2,4]triazolo[1,5-a]pyrimidin-4(7H)-yl)-N-(4-((trifluoromethyl)thio)phenyl)acetamide]",–
1 to 100 nM,"CCc1c(N2CCCN(C(=O)c3ncnc(C)c3O)CC2)c(=O)n2nc(C3=CCCCCC3)nc2n1CC(=O)Nc1ccc(S(F)(F)(F)(F)F)cc1 [Example 94, 2-(2-(cyclohept-1-en-1-yl)-5-ethyl-6-(4-(5-hydroxy-6-methylpyrimidine-4-carbonyl)-1,4-diazepan-1-yl)-7-oxo-[1,2,4]triazolo[1,5-a]pyrimidin-4(7H)-yl)-N-(4-(pentafluoro-λ^6-sulfaneyl)phenyl)a cetamide]",–
1 to 100 nM,"CCc1c(N2CCN(C(=O)c3ncnc(C)c3O)CC2)c(=O)n2nc(-c3ccc4scnc4c3)nc2n1CC(=O)Nc1ccc(C(F)(F)F)cc1Cl [Example 100, 2-(2-(benzo[d]thiazol-5-yl)-5-ethyl-6-(4-(5-hydroxy-6-methylpyrimidine-4-carbonyl)piperazin-1-yl)-7-oxo-[1,2,4]triazolo[1,5-a]pyrimidin-4(7H)-yl)-N-(2-chloro-4-(trifluoromethyl)phenyl)acetamide]",–
